The values below are quoted from earlier work in patent US20130338098A1, “Topical Analgesic Compositions Containing Aliphatic Polyamines and Methods of Using Same” (Dermal Therapy (Barbados) Inc., priority 2000, published 2013).

The conditions of the data set: orally, intravenously, intraperitoneally, and intramuscularly.

Take `NCCCCN` [putrescine, 1,4-diaminobutane]: the Toxicity result is listed as “very low toxicity”.
